Results published in patent publication US12077503B2, “Substituted cyclic amides and their use as herbicides” (FMC CORPORATION, priority 2015, dated 2024).
Where two headings read alike, the source gives them in different places.

Legend:
Assay type in all cases: in vivo
[1] = system: ryegrass, Italian (Italian ryegrass, Lolium multiflorum); assay: Test A postemergence; details: Lolium multiflorum, post-emergence, 240 h, postemergence, read-out: Ryegrass, Italian plant response rating; for pest or weed control at 125 g/ha: 125 g ai/ha, visual injury on 0 to 100 scale (0 no effect, 100 complete control), approx. 10 d; for pest or weed control at 500 g/ha: 500 g ai/ha, 0 to 100 scale, 0 is no effect, 100 is complete control
Method in brief: (§1)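 Compounds were formulated in a non-phytotoxic solvent mixture with surfactant and applied as a preemergence directed soil spray after seeding, or sprayed postemergence over plants 2 to 10 cm tall at the one- to two-leaf stage. Evaluation after about 10 d compared treated with untreated controls, using a scale from 0 (no effect) to 100 (complete control).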

corn (Zea mays) = assay: Test A postemergence; details: Zea mays, post-emergence, 240 h; for plant injury at 125 g/ha: visual injury on 0 to 100 scale (0 no effect, 100 complete control); for plant injury at 125 g/ha / plant injury at 500 g/ha: read-out: Corn plant response rating; for plant injury at 500 g/ha: 0 to 100 scale, 0 is no effect, 100 is complete control
Method in brief: as §1

[2] = system: pigweed (Amaranthus retroflexus); assay: Test A postemergence; details: Amaranthus retroflexus, post-emergence, 240 h, postemergence, read-out: Pigweed plant response rating; for pest or weed control at 125 g/ha: 125 g ai/ha, visual injury on 0 to 100 scale (0 no effect, 100 complete control), approx. 10 d; for pest or weed control at 500 g/ha: 500 g ai/ha, 0 to 100 scale, 0 is no effect, 100 is complete control
Method in brief: as §1

[3] = system: ragweed (common ragweed, Ambrosia elatior); assay: Test A postemergence; details: Ambrosia artemisiifolia, post-emergence, 240 h, postemergence, read-out: Ragweed plant response rating; for pest or weed control at 125 g/ha: 125 g ai/ha, visual injury on 0 to 100 scale (0 no effect, 100 complete control), approx. 10 d; for pest or weed control at 500 g/ha: 500 g ai/ha, 0 to 100 scale, 0 is no effect, 100 is complete control
Method in brief: as §1

[4] = system: blackgrass (Alopecurus myosuroides); assay: Test A postemergence; details: Alopecurus myosuroides, post-emergence, 240 h; for pest or weed control at 125 g/ha: 125 g ai/ha; for pest or weed control at 500 g/ha: 500 g ai/ha
Method in brief: as §1

Kochia (Kochia scoparia) = assay: Test A preemergence; details: Bassia scoparia, pre-emergence, 240 h; for pest or weed control at 125 g/ha: 125 g ai/ha; for pest or weed control at 500 g/ha: 500 g ai/ha
Method in brief: as §1

[5] = system: barnyardgrass (Echinochloa crus-galli); assay: Test A preemergence; details: Echinochloa crus-galli, pre-emergence, 240 h; for pest or weed control at 125 g/ha: 125 g ai/ha; for pest or weed control at 500 g/ha: 500 g ai/ha, visual injury rating about 10 d after treatment, 0 to 100 scale (0 no effect, 100 complete control)
Method in brief: as §1

[6] = system: ryegrass, Italian (Italian ryegrass, Lolium multiflorum); assay: Test A preemergence; details: Lolium multiflorum, pre-emergence, 240 h; for pest or weed control at 125 g/ha: 125 g ai/ha; for pest or weed control at 500 g/ha: 500 g ai/ha
Method in brief: as §1

[7] = system: pigweed (Amaranthus retroflexus); assay: Test A preemergence; details: Amaranthus retroflexus, pre-emergence, 240 h; for pest or weed control at 125 g/ha: 125 g ai/ha; for pest or weed control at 500 g/ha: 500 g ai/ha
[8] = system: ragweed (common ragweed, Ambrosia elatior); assay: Test A preemergence; details: Ambrosia artemisiifolia, pre-emergence, 240 h; for pest or weed control at 125 g/ha: 125 g ai/ha; for pest or weed control at 500 g/ha: 500 g ai/ha
Method in brief: as §1

[9] = system: giant foxtail (Setaria faberii); assay: Test A preemergence; details: Setaria faberi, pre-emergence, 240 h; for pest or weed control at 125 g/ha: 125 g ai/ha; for pest or weed control at 500 g/ha: 500 g ai/ha
Method in brief: as §1

[10] = system: barnyardgrass (Echinochloa crus-galli); assay: Test B flooded paddy test; details: Echinochloa crus-galli, 250 g ai/ha, Flood; 0 to 100 scale where 0 is no effect and 100 is complete control; read-out: Barnyardgrass plant response rating
Method in brief: (§2)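 Flooding to 3 cm over soil accompanied treatment, which consisted of adding compound to the standing water around 2-leaf plants; depth was then maintained. Visual assessment versus controls followed at 13 to 15 d (scale 0–100, 0 meaning no effect).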

[11] = system: ducksalad (Heteranthera limosa); assay: Test B flooded paddy test; details: Heteranthera limosa, 250 g ai/ha, Flood; 0 to 100 scale where 0 is no effect and 100 is complete control; read-out: Ducksalad plant response rating
Method in brief: as §2

rice (Oryra sativa) = assay: Test B flooded paddy test; details: Oryza sativa, 250 g ai/ha, Flood; 0 to 100 scale where 0 is no effect and 100 is complete control; read-out: Rice plant response rating
Method in brief: as §2

[12] = system: sedge, umbrella (small-flower umbrella sedge, Cyperus difformis); assay: Test B flooded paddy test; details: Cyperus difformis, 250 g ai/ha, Flood; 0 to 100 scale where 0 is no effect and 100 is complete control; read-out: Sedge, Umbrella plant response rating
Method in brief: as §2

[13] = preemergence, visual injury rating about 10 d after treatment, 0 to 100 scale (0 no effect, 100 complete control), read-out: Kochia plant response rating
[14] = preemergence, read-out: Barnyardgrass plant response rating
[15] = preemergence, visual injury rating about 10 d after treatment, 0 to 100 scale (0 no effect, 100 complete control), read-out: Ryegrass, Italian plant response rating
[16] = preemergence, visual injury rating about 10 d after treatment, 0 to 100 scale (0 no effect, 100 complete control), read-out: Pigweed plant response rating
[17] = preemergence, visual injury rating about 10 d after treatment, 0 to 100 scale (0 no effect, 100 complete control), read-out: Ragweed plant response rating
[18] = preemergence, visual injury rating about 10 d after treatment, 0 to 100 scale (0 no effect, 100 complete control), read-out: Foxtail, Giant plant response rating
[19] = 125 g ai/ha, postemergence, approx. 10 d
[20] = postemergence, visual injury on 0 to 100 scale (0 no effect, 100 complete control), approx. 10 d, read-out: Blackgrass plant response rating
[21] = postemergence, 0 to 100 scale, 0 is no effect, 100 is complete control, read-out: Blackgrass plant response rating
[22] = preemergence, 0 to 100 scale where 0 is no effect and 100 is complete control, approx. 10 d, read-out: Kochia plant response rating
[23] = preemergence, 0 to 100 scale where 0 is no effect and 100 is complete control, approx. 10 d, read-out: Barnyardgrass plant response rating
[24] = preemergence, 0 to 100 scale where 0 is no effect and 100 is complete control, approx. 10 d, read-out: Ryegrass, Italian plant response rating
[25] = preemergence, 0 to 100 scale where 0 is no effect and 100 is complete control, approx. 10 d, read-out: Pigweed plant response rating
[26] = preemergence, 0 to 100 scale where 0 is no effect and 100 is complete control, approx. 10 d, read-out: Ragweed plant response rating
[27] = preemergence, 0 to 100 scale where 0 is no effect and 100 is complete control, approx. 10 d, read-out: Foxtail, Giant plant response rating

| Structure (SMILES) | pest or weed control at 125 g/ha [1] | pest or weed control at 125 g/ha [2] | pest or weed control at 125 g/ha [3] | pest or weed control at 500 g/ha (Kochia (Kochia scoparia); [13]) | pest or weed control at 500 g/ha [5, 14] | pest or weed control at 500 g/ha [6, 15] | pest or weed control at 500 g/ha [7, 16] | pest or weed control at 500 g/ha [8, 17] | pest or weed control at 500 g/ha [9, 18] | pest or weed control at 250 g/ha [10] | pest or weed control at 250 g/ha [11] | pest or weed control at 250 g/ha (rice (Oryra sativa)) | pest or weed control at 250 g/ha [12] | pest or weed control at 500 g/ha [1] | plant injury at 125 g/ha (corn (Zea mays); [19]) | plant injury at 500 g/ha (corn (Zea mays); 500 g ai/ha, postemergence) | pest or weed control at 500 g/ha [2] | pest or weed control at 500 g/ha [3] | pest or weed control at 125 g/ha [4, 20] | pest or weed control at 500 g/ha [4, 21] | other results |
| --- | --- | --- | --- | --- | --- | --- | --- | --- | --- | --- | --- | --- | --- | --- | --- | --- | --- | --- | --- | --- | --- |
| Cc1ccc([C@H]2CN(C)C(=O)[C@@H]2C(=O)Nc2cccc(F)c2F)cc1C [Compound 1039] | 50% | 0% | 10% | 100% | 100% | 80% | 40% | 90% | 100% | 65% | 90% | 0% | 0% | – | – | – | – | – | – | – | Corn plant response rating (crop injury, 0 = no effect, 100 = complete kill) at 125 g/ha (corn (Zea mays); 125 g ai/ha, Postemergence, visual injury after approximately 10 d, 0 to 100 scale where 0 is no effect and 100 is complete control): 70%; Corn plant response rating (crop injury, 0 = no effect, 100 = complete kill) at 500 g/ha (corn (Zea mays); 500 g ai/ha, postemergence, visual injury, 0 to 100 scale (0 no effect, 100 complete control), approx. 10 d): 70%; pest or weed control at 125 g/ha ([4]; Postemergence, visual injury after approximately 10 d, 0 to 100 scale where 0 is no effect and 100 is complete control, read-out: Plant response rating, Blackgrass): 30%; pest or weed control at 500 g/ha ([4]; postemergence, visual injury, 0 to 100 scale (0 no effect, 100 complete control), approx. 10 d, read-out: Plant response rating, Blackgrass): 40%; pest or weed control at 125 g/ha (Kochia (Kochia scoparia); Preemergence, visual injury rating after approximately 10 d, read-out: Kochia plant response rating (0 to 100 scale, 0 is no effect, 100 is complete control)): 80%; pest or weed control at 125 g/ha ([5]; Preemergence, visual injury rating after approximately 10 d, read-out: Barnyardgrass plant response rating (0 to 100 scale, 0 is no effect, 100 is complete control)): 90%; pest or weed control at 125 g/ha ([6]; Preemergence, visual injury rating after approximately 10 d, read-out: Ryegrass, Italian plant response rating (0 to 100 scale, 0 is no effect, 100 is complete control)): 60%; pest or weed control at 125 g/ha ([7]; Preemergence, visual injury rating after approximately 10 d, read-out: Pigweed plant response rating (0 to 100 scale, 0 is no effect, 100 is complete control)): 20%; pest or weed control at 125 g/ha ([8]; Preemergence, visual injury rating after approximately 10 d, read-out: Ragweed plant response rating (0 to 100 scale, 0 is no effect, 100 is complete control)): 10%; pest or weed control at 125 g/ha ([9]; Preemergence, visual injury rating after approximately 10 d, read-out: Foxtail, Giant plant response rating (0 to 100 scale, 0 is no effect, 100 is complete control)): 90% |
| Cc1ccc([C@H]2CNC(=O)[C@]2(Br)C(=O)Nc2cccc(F)c2F)cc1F (racemic) [Compound 1073] | 0% | 0% | 30% | 70% | 100% | 20% | 100% | 30% | 100% | 55% | 100% | 15% | 0% | 40% | 20% | 50% | 20% | 30% | 0% | 30% | pest or weed control at 125 g/ha (Kochia (Kochia scoparia); [22]): 0%; pest or weed control at 125 g/ha [5, 23]: 100%; pest or weed control at 125 g/ha [6, 24]: 0%; pest or weed control at 125 g/ha [7, 25]: 100%; pest or weed control at 125 g/ha [8, 26]: 10%; pest or weed control at 125 g/ha [9, 27]: 100% |
| CN1C[C@H](c2cscn2)[C@@H](C(=O)Nc2cccc(F)c2F)C1=O [Compound 1113] | 0% | 0% | 0% | – | 0% | – | – | – | – | 0% | 30% | 20% | 0% | 0% | 0% | 0% | 0% | 0% | 0% | 0% | pest or weed control at 125 g/ha (Kochia (Kochia scoparia); [22]): 0%; pest or weed control at 500 g/ha (Kochia (Kochia scoparia); preemergence, 0 to 100 scale where 0 is no effect and 100 is complete control, read-out: Kochia plant response rating): 0%; pest or weed control at 125 g/ha [5, 23]: 0%; pest or weed control at 125 g/ha [6, 24]: 0%; pest or weed control at 500 g/ha ([6]; preemergence, 0 to 100 scale where 0 is no effect and 100 is complete control, read-out: Ryegrass, Italian plant response rating): 0%; pest or weed control at 125 g/ha [7, 25]: 0%; pest or weed control at 500 g/ha ([7]; preemergence, 0 to 100 scale where 0 is no effect and 100 is complete control, read-out: Pigweed plant response rating): 0%; pest or weed control at 125 g/ha [8, 26]: 0%; pest or weed control at 500 g/ha ([8]; preemergence, 0 to 100 scale where 0 is no effect and 100 is complete control, read-out: Ragweed plant response rating): 0%; pest or weed control at 125 g/ha [9, 27]: 0%; pest or weed control at 500 g/ha ([9]; preemergence, 0 to 100 scale where 0 is no effect and 100 is complete control, read-out: Foxtail, Giant plant response rating): 0% |
